From US9376506B2, “Method for producing sialic-acid-containing sugar chain” (GLYTECH, INC., priority 2011, dated 2016)
Where two headings read alike, the source gives them in different places.

Key:
ST6Gal-I = biological target: T1, ST6Gal-I (Homo sapiens, UniProt P15907); details: 0.25 mM CMP, cited from earlier work
T1 sequence (P15907 1-406): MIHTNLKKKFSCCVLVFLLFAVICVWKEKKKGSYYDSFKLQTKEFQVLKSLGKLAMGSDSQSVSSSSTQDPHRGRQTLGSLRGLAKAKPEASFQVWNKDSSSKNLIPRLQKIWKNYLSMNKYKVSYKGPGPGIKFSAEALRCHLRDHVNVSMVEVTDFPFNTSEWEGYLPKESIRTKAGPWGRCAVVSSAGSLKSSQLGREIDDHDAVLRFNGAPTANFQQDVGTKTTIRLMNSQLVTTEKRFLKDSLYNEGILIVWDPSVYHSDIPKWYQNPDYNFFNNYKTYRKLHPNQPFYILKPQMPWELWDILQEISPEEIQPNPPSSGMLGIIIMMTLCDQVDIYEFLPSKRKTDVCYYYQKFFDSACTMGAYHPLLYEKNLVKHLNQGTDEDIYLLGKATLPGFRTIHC

[1] = Stability of CMP-Neu5Ac (CMP formation, HPLC); type: physicochemical; details: 5 mM CMP-Neu5Ac/0.1 M MOPS (pH 7.3), after 24 hours
Procedure: In order to confirm whether CMP was formed by the degradation of the substrate donor CMP-Neu5Ac, 5 mM CMP-Neu5Ac/0.1 M MOPS (pH 7.3) was incubated at 25° C., 30° C., 33° C., or 37° C., and the amount of CMP formed was measured. The measurement was performed by HPLC using a column TSKgel SuperQ-5PW (7.5×75 mm; Tosoh Corp.) and 50 mM KPi (pH 8.0) as a solvent. A UV detector (detection wavelength: 254 nm) was used for the detection. The degree of CMP formation was indicated by [Peak area of CMP]/[Peak area of CMP+Peak area of CMP-Neu5Ac]×100(%). After 24 hours, 45% CMP was formed at 37° C., whereas 21% CMP was formed at 30° C., which was about half of that formed at 37° C.

Structure (SMILES) | product inhibition of ST6Gal-I by CMP (ST6Gal-I; Non Patent Literature 5) [%] | product inhibition of ST6Gal-I by CMP (ST6Gal-I; Non Patent Literature 6) [%] | CMP formed, [Peak area of CMP]/[Peak area of CMP+Peak area of CMP-Neu5Ac]×100 ([1]; 30° C.) [%] | CMP formed, [Peak area of CMP]/[Peak area of CMP+Peak area of CMP-Neu5Ac]×100 ([1]; 37° C.) [%]
Nc1ccn([C@@H]2O[C@H](COP(=O)(O)O)[C@@H](O)[C@H]2O)c(=O)n1 [CMP, cytidine monophosphate] | 49 | 71 | – | –
CC(=O)N[C@H]1[C@H]([C@H](O)[C@H](O)CO)O[C@](OP(=O)(O)OC[C@H]2O[C@@H](n3ccc(N)nc3=O)[C@H](O)[C@@H]2O)(C(=O)O)C[C@@H]1O [CMP-Neu5Ac, CMP-N-acetylneuraminic acid] | – | – | 21 | 45
